{"source": "ChEMBL document CHEMBL1157018", "about": "“Synthesis and antibacterial activity of 5-ylidenethiazolidin-4-ones and 5-benzylidene-4,6-pyrimidinediones” (2010)", "type_in_all_cases": "functional", "key": {"Staphylococcus aureus [1]": {"test_system": "Staphylococcus aureus", "test": "Antibacterial activity against Staphylococcus aureus ATCC 29213 after 18 to 24 hrs"}, "Enterococcus faecalis": {"test_system": "Enterococcus faecalis", "test": "Antibacterial activity against Enterococcus faecalis ATCC 29212 after 18 to 24 hrs"}, "Escherichia coli": {"test_system": "Escherichia coli", "test": "Antibacterial activity against Escherichia coli ATCC 25922 after 18 to 24 hrs"}, "Pseudomonas aeruginosa": {"test_system": "Pseudomonas aeruginosa", "test": "Antibacterial activity against Pseudomonas aeruginosa ATCC 27853 after 18 to 24 hrs"}, "Staphylococcus aureus [2]": {"test_system": "Staphylococcus aureus", "test": "Antibacterial activity against methicillin-resistant Staphylococcus aureus ATCC 43300 after 18 to 24 hrs"}, "Streptococcus pneumoniae": {"test_system": "Streptococcus pneumoniae", "test": "Antibacterial activity against Streptococcus pneumoniae ATCC 49619 after 18 to 24 hrs"}, "Streptococcus pyogenes": {"test_system": "Streptococcus pyogenes", "test": "Antibacterial activity against Streptococcus pyogenes ATCC 19615 after 18 to 24 hrs"}}}
{"smiles": "Cl.N#Cc1ccc(CN2C(=O)C(CCOc3ccc(CCN)cc3)Oc3ccccc32)cc1", "note": "(stereo not drawn)", "values": [{"measurement": "MIC", "setting": "Staphylococcus aureus [1]", "result": 64, "unit": "µg/mL"}, {"measurement": "MIC", "setting": "Enterococcus faecalis", "result": 64, "unit": "µg/mL"}]}
{"smiles": "COc1cc(C=C2C(=O)NC(=O)NC2=O)cc(OC)c1OC", "values": [{"measurement": "MIC", "setting": "Staphylococcus aureus [1]", "result": "> 128", "unit": "µg/mL"}, {"measurement": "MIC", "setting": "Escherichia coli", "result": "> 128", "unit": "µg/mL"}, {"measurement": "MIC", "setting": "Enterococcus faecalis", "result": "> 128", "unit": "µg/mL"}, {"measurement": "MIC", "setting": "Pseudomonas aeruginosa", "result": "> 128", "unit": "µg/mL"}]}
{"smiles": "O=C1NC(=O)C(=Cc2ccc(F)c(F)c2F)C(=O)N1", "values": [{"measurement": "MIC", "setting": "Staphylococcus aureus [2]", "result": 128, "unit": "µg/mL"}, {"measurement": "MIC", "setting": "Staphylococcus aureus [1]", "result": 32, "unit": "µg/mL"}, {"measurement": "MIC", "setting": "Escherichia coli", "result": "> 128", "unit": "µg/mL"}, {"measurement": "MIC", "setting": "Enterococcus faecalis", "result": "> 128", "unit": "µg/mL"}, {"measurement": "MIC", "setting": "Pseudomonas aeruginosa", "result": "> 128", "unit": "µg/mL"}]}
{"smiles": "O=C1NC(=S)S/C1=C\\CC1Oc2ccccc2N(Cc2ccc(Cl)cc2)C1=O", "note": "(stereo not drawn)", "values": [{"measurement": "MIC", "setting": "Staphylococcus aureus [1]", "result": 32, "unit": "µg/mL"}, {"measurement": "MIC", "setting": "Escherichia coli", "result": "> 128", "unit": "µg/mL"}, {"measurement": "MIC", "setting": "Enterococcus faecalis", "result": "> 128", "unit": "µg/mL"}, {"measurement": "MIC", "setting": "Pseudomonas aeruginosa", "result": "> 128", "unit": "µg/mL"}]}
{"smiles": "N#Cc1ccc(CN2C(=O)C(C/C=C3\\SC(=S)NC3=O)Oc3ccccc32)cc1", "note": "(stereo not drawn)", "values": [{"measurement": "MIC", "setting": "Staphylococcus aureus [1]", "result": 32, "unit": "µg/mL"}, {"measurement": "MIC", "setting": "Escherichia coli", "result": "> 128", "unit": "µg/mL"}, {"measurement": "MIC", "setting": "Enterococcus faecalis", "result": 32, "unit": "µg/mL"}, {"measurement": "MIC", "setting": "Pseudomonas aeruginosa", "result": "> 128", "unit": "µg/mL"}]}
{"smiles": "Cl.NCCc1ccc(OCCC2Oc3ccccc3N(Cc3ccc(Cl)cc3)C2=O)cc1", "note": "(stereo not drawn)", "values": [{"measurement": "MIC", "setting": "Staphylococcus aureus [1]", "result": 8, "unit": "µg/mL"}, {"measurement": "MIC", "setting": "Enterococcus faecalis", "result": 16, "unit": "µg/mL"}]}
{"smiles": "O=C1NC(=O)/C(=C/c2ccc(F)c(F)c2F)S1", "values": [{"measurement": "MIC", "setting": "Staphylococcus aureus [2]", "result": 64, "unit": "µg/mL"}, {"measurement": "MIC", "setting": "Staphylococcus aureus [1]", "result": 32, "unit": "µg/mL"}, {"measurement": "MIC", "setting": "Escherichia coli", "result": "> 128", "unit": "µg/mL"}, {"measurement": "MIC", "setting": "Enterococcus faecalis", "result": "> 128", "unit": "µg/mL"}, {"measurement": "MIC", "setting": "Pseudomonas aeruginosa", "result": "> 128", "unit": "µg/mL"}]}
{"smiles": "COc1cc(/C=C2\\SC(=O)NC2=O)cc(OC)c1OC", "values": [{"measurement": "MIC", "setting": "Staphylococcus aureus [1]", "result": "> 128", "unit": "µg/mL"}, {"measurement": "MIC", "setting": "Escherichia coli", "result": "> 128", "unit": "µg/mL"}, {"measurement": "MIC", "setting": "Enterococcus faecalis", "result": "> 128", "unit": "µg/mL"}, {"measurement": "MIC", "setting": "Pseudomonas aeruginosa", "result": "> 128", "unit": "µg/mL"}]}
{"smiles": "O=C1NC(=S)S/C1=C\\c1ccc(F)c(F)c1F", "values": [{"measurement": "MIC", "setting": "Staphylococcus aureus [2]", "result": 32, "unit": "µg/mL"}, {"measurement": "MIC", "setting": "Staphylococcus aureus [1]", "result": 0.5, "unit": "µg/mL"}, {"measurement": "MIC", "setting": "Escherichia coli", "result": "> 128", "unit": "µg/mL"}, {"measurement": "MIC", "setting": "Enterococcus faecalis", "result": "> 128", "unit": "µg/mL"}, {"measurement": "MIC", "setting": "Pseudomonas aeruginosa", "result": "> 128", "unit": "µg/mL"}, {"measurement": "MBC", "setting": "Streptococcus pneumoniae", "result": 64, "unit": "µg/mL"}, {"measurement": "MBC", "setting": "Streptococcus pyogenes", "result": "> 128", "unit": "µg/mL"}]}
{"smiles": "O=C1NC(=S)S/C1=C\\c1ccc(O)c(O)c1O", "values": [{"measurement": "MIC", "setting": "Staphylococcus aureus [1]", "result": "> 128", "unit": "µg/mL"}, {"measurement": "MIC", "setting": "Enterococcus faecalis", "result": "> 128", "unit": "µg/mL"}]}
{"smiles": "O=C(O)CN1C(=O)/C(=C/c2ccc(F)c(F)c2F)SC1=S", "values": [{"measurement": "MIC", "setting": "Staphylococcus aureus [1]", "result": "> 128", "unit": "µg/mL"}, {"measurement": "MIC", "setting": "Escherichia coli", "result": "> 128", "unit": "µg/mL"}, {"measurement": "MIC", "setting": "Enterococcus faecalis", "result": "> 128", "unit": "µg/mL"}, {"measurement": "MIC", "setting": "Pseudomonas aeruginosa", "result": "> 128", "unit": "µg/mL"}]}
{"smiles": "COc1cc(/C=C2\\SC(=S)N(CC(=O)O)C2=O)cc(OC)c1OC", "values": [{"measurement": "MIC", "setting": "Staphylococcus aureus [1]", "result": "> 128", "unit": "µg/mL"}, {"measurement": "MIC", "setting": "Escherichia coli", "result": "> 128", "unit": "µg/mL"}, {"measurement": "MIC", "setting": "Enterococcus faecalis", "result": "> 128", "unit": "µg/mL"}, {"measurement": "MIC", "setting": "Pseudomonas aeruginosa", "result": "> 128", "unit": "µg/mL"}]}
{"smiles": "COc1cc(C=C2C(=O)NC(=S)NC2=O)cc(OC)c1OC", "values": [{"measurement": "MIC", "setting": "Staphylococcus aureus [1]", "result": "> 128", "unit": "µg/mL"}, {"measurement": "MIC", "setting": "Escherichia coli", "result": "> 128", "unit": "µg/mL"}, {"measurement": "MIC", "setting": "Enterococcus faecalis", "result": "> 128", "unit": "µg/mL"}, {"measurement": "MIC", "setting": "Pseudomonas aeruginosa", "result": "> 128", "unit": "µg/mL"}]}
{"smiles": "COc1cc(/C=C2\\SC(=S)NC2=O)cc(OC)c1OC", "values": [{"measurement": "MIC", "setting": "Staphylococcus aureus [2]", "result": 128, "unit": "µg/mL"}, {"measurement": "MIC", "setting": "Staphylococcus aureus [1]", "result": 8, "unit": "µg/mL"}, {"measurement": "MIC", "setting": "Escherichia coli", "result": "> 128", "unit": "µg/mL"}, {"measurement": "MIC", "setting": "Enterococcus faecalis", "result": "> 128", "unit": "µg/mL"}, {"measurement": "MIC", "setting": "Pseudomonas aeruginosa", "result": "> 128", "unit": "µg/mL"}, {"measurement": "MBC", "setting": "Streptococcus pneumoniae", "result": "> 128", "unit": "µg/mL"}, {"measurement": "MBC", "setting": "Streptococcus pyogenes", "result": "> 128", "unit": "µg/mL"}]}
